Assay results taken from patent US12201632B2, “Levoketoconazole for treatment of congenital adrenal hyperplasia and primary aldosteronism” (Strongbridge Dublin Limited, priority 2018, dated 2025).

System: EAS associated adrenal hyperplasia no. 1 primary culture
Assay: Steroid profile by LC/MS-MS in EAS associated adrenal hyperplasia no. 1
Format: cell-based, human
Details: for 11-DOC absolute change vs ACTH stimulation with vehicle / 11-DOC percentage change vs ACTH stimulation with vehicle / 17-OHP absolute change vs ACTH stimulation with vehicle / 17-OHP percentage change vs ACTH stimulation with vehicle / Androstenedione absolute change vs ACTH stimulation with vehicle / Androstenedione percentage change vs ACTH stimulation with vehicle / Corticosterone absolute change vs ACTH stimulation with vehicle / Corticosterone percentage change vs ACTH stimulation with vehicle / Cortisol absolute change vs ACTH stimulation with vehicle / Cortisol percentage change vs ACTH stimulation with vehicle / DHEA absolute change vs ACTH stimulation with vehicle / DHEAS absolute change vs ACTH stimulation with vehicle / Prog absolute change vs ACTH stimulation with vehicle / Prog percentage change vs ACTH stimulation with vehicle / Testosterone absolute change vs ACTH stimulation with vehicle / Testosterone percentage change vs ACTH stimulation with vehicle: EAS associated adrenal hyperplasia no. 1, ACTH; for 11-DOC absolute change vs ACTH stimulation with vehicle / 11-DOC percentage change vs ACTH stimulation with vehicle / 17-OHP absolute change vs ACTH stimulation with vehicle / 17-OHP percentage change vs ACTH stimulation with vehicle / Androstenedione absolute change vs ACTH stimulation with vehicle / Androstenedione percentage change vs ACTH stimulation with vehicle / Corticosterone absolute change vs ACTH stimulation with vehicle / Corticosterone percentage change vs ACTH stimulation with vehicle / Cortisol absolute change vs ACTH stimulation with vehicle / Cortisol percentage change vs ACTH stimulation with vehicle / DHEA absolute change vs ACTH stimulation with vehicle / DHEAS absolute change vs ACTH stimulation with vehicle / Prog absolute change vs ACTH stimulation with vehicle / Prog percentage change vs ACTH stimulation with vehicle / Testosterone absolute change vs ACTH stimulation with vehicle / Testosterone percentage change vs ACTH stimulation with vehicle / 11-DOC absolute change vs control / 11-DOC percentage change vs control / 17-OHP absolute change vs control / 17-OHP percentage change vs control / Androstenedione absolute change vs control / Androstenedione percentage change vs control / Corticosterone absolute change vs control / Corticosterone percentage change vs control / Cortisol absolute change vs control / Cortisol percentage change vs control / DHEA absolute change vs control / DHEAS absolute change vs control / Prog absolute change vs control / Prog percentage change vs control / Testosterone absolute change vs control / Testosterone percentage change vs control: 3 days; for 11-DOC absolute change vs control / 11-DOC percentage change vs control / 17-OHP absolute change vs control / 17-OHP percentage change vs control / Androstenedione absolute change vs control / Androstenedione percentage change vs control / Corticosterone absolute change vs control / Corticosterone percentage change vs control / Cortisol absolute change vs control / Cortisol percentage change vs control / DHEA absolute change vs control / DHEAS absolute change vs control / Prog absolute change vs control / Prog percentage change vs control / Testosterone absolute change vs control / Testosterone percentage change vs control: EAS associated adrenal hyperplasia no. 1, Basal
Method: To obtain primary cultures, adrenal specimens (adrenocortical adenomas, adrenal hyperplasias and adrenocortical carcinomas) were collected after adrenalectomy at the department of Surgery, Erasmus University Medical Center, Rotterdam, the Netherlands, between April 2016 and May 2018. The study was conducted under guidelines that have been approved by the Medical Ethics Committee of the Erasmus Medical Center and informed consent was obtained from all patients. Immediately after surgery, specimens were minced into small pieces of 2-3 mm^3, washed in culture medium and centrifuged for 5 minutes at 600 g. The tissue was stored overnight in culture medium at 4° C., where after the tissue was centrifuged again and the supernatant was removed. Fragments were dissociated using 10-25 ml collagenase type 1 (2 mg/ml: Sigma-Aldrich), followed by incubation at 37° C. for up to two hours. Ficoll (GE healthcare) density gradient separation was used once or twice as required in order to separate contaminating red blood cells from the tumor cells. Cell viability and cell amount were counted by trypan blue exclusion. Dissociated cells were plated at a density of 10^5 cells per well. ACTH-secreting corticotroph pituitary adenoma tissue from patients with Cushing's disease (n=2) was available after transsphenoidal surgery. Single-cell suspensions of the pituitary adenoma tissues were prepared as previously described in detail.
Primary culture conditions for primary cultures were similar as described in the section ‘cell culture and compounds’, but with small adjustments: ACTH was used at a concentration of 85 pM (250 pg/mL), treatment was started 3-4 days after plating of the cells and cells were incubated for 3 days, and; for pituitary primary cultures, levoketoconazole and racemic ketoconazole were only tested at a concentration of 1 μM. Owing to a limited number of cells obtained from the specimens, not all experiments were carried out in every primary culture.
Cortisol concentrations were measured in the supernatant using a chemiluminescence immunoassay system (Immulite 2000XPi; Siemens DPC Inc., Los Angeles, Calif., USA). In addition, we carried out multi-steroid analysis by liquid chromatography/mass spectrometry (LC/MS-MS) to accurately quantify androstenedione, corticosterone, cortisol, 11-deoxycortisol, DHEA, DHEAS, progesterone, 17-hydroxyprogesterone, and testosterone. Concentrations that were tested on the LC/MS-MS were closest to 50% inhibition or maximal inhibition of cortisol as determined by the immunoassay. Steroids were quantified with respect to a calibration series, with internal standards. Steroids were quantified on a Xevo TQS LC-MS/MS (Waters Chromatography).
Statistical analysis was performed using Graphpad Prism 6.0 (Graphpad Software, San Diego, CA). Non-linear regression curve fitting program was used to calculate the half maximal inhibitory concentrations (IC50) on cortisol production. Effects of both compounds on the steroid profile were measured as absolute change compared to control and compared using the Student's t-test. When assessing differences between effects of both compounds, the percentage change was evaluated and compared in order to correct for differences in the vehicle treated control cells. Values of P<0.05 were considered statistically significant and data are presented as mean SEM.

CC(=O)N1CCN(c2ccc(OC[C@@H]3CO[C@@](Cn4ccnc4)(c4ccc(Cl)cc4Cl)O3)cc2)CC1 (relative stereo) [levoketoconazole, 2S,4R cis-1-acetyl-4-[4-[[2-(2,4-dichlorophenyl)-2-(1H-imidazol-1-ylmethyl)-1,3-dioxolan-4-yl]methoxyl]phenyl]piperazine]
11-DOC absolute change vs ACTH stimulation with vehicle (0.05 μM): did not change | 11-DOC percentage change vs ACTH stimulation with vehicle (0.05 μM): (+1.6%) | 17-OHP absolute change vs ACTH stimulation with vehicle (0.05 μM): +8.300 nmol/l | 17-OHP percentage change vs ACTH stimulation with vehicle (0.05 μM): +41% | Androstenedione absolute change vs ACTH stimulation with vehicle (0.05 μM): -9.600 nmol/L | Androstenedione percentage change vs ACTH stimulation with vehicle (0.05 μM): −50% | Corticosterone absolute change vs ACTH stimulation with vehicle (0.05 μM): +97.95 nmol/l | Corticosterone percentage change vs ACTH stimulation with vehicle (0.05 μM): +29% | Cortisol absolute change vs ACTH stimulation with vehicle (0.05 μM): -234.8 nmol/L | Cortisol percentage change vs ACTH stimulation with vehicle (0.05 μM): −37% | DHEA absolute change vs ACTH stimulation with vehicle (0.05 μM): <LLQ | DHEAS absolute change vs ACTH stimulation with vehicle (0.05 μM): <LLQ | Prog absolute change vs ACTH stimulation with vehicle (0.05 μM): +6.025 nmol/l | Prog percentage change vs ACTH stimulation with vehicle (0.05 μM): +167% | Testosterone absolute change vs ACTH stimulation with vehicle (0.05 μM): -0.3250 nmol/L | Testosterone percentage change vs ACTH stimulation with vehicle (0.05 μM): −45% | 11-DOC absolute change vs ACTH stimulation with vehicle (0.05 μM, listed as LK): -6.000 nmol/L | 17-OHP absolute change vs ACTH stimulation with vehicle (0.05 μM, listed as LK): +8.300 nmol/l | 17-OHP percentage change vs ACTH stimulation with vehicle (0.05 μM, listed as LK): (+41%) | Androstenedione absolute change vs ACTH stimulation with vehicle (0.05 μM, listed as LK): -9.600 nmol/L | Androstenedione percentage change vs ACTH stimulation with vehicle (0.05 μM, listed as LK): (−50%) | Corticosterone absolute change vs ACTH stimulation with vehicle (0.05 μM, listed as LK): 97.95 nmol/L | Corticosterone percentage change vs ACTH stimulation with vehicle (0.05 μM, listed as LK): (+29%) | Cortisol absolute change vs ACTH stimulation with vehicle (0.05 μM, listed as LK): -234.8 nmol/L | Cortisol percentage change vs ACTH stimulation with vehicle (0.05 μM, listed as LK): (−37%) | Prog percentage change vs ACTH stimulation with vehicle (0.05 μM, listed as LK): (+167%) | Testosterone absolute change vs ACTH stimulation with vehicle (0.05 μM, listed as LK): -0.3250 nmol/L | Testosterone percentage change vs ACTH stimulation with vehicle (0.05 μM, listed as LK): (−45%) | 11-DOC absolute change vs ACTH stimulation with vehicle (5 μM): -435.4 nmol/L | 11-DOC percentage change vs ACTH stimulation with vehicle (5 μM): (−99%) | 17-OHP absolute change vs ACTH stimulation with vehicle (5 μM): -31.55 nmol/L | 17-OHP percentage change vs ACTH stimulation with vehicle (5 μM): (−90%) | Androstenedione absolute change vs ACTH stimulation with vehicle (5 μM): -15.19 nmol/L | Androstenedione percentage change vs ACTH stimulation with vehicle (5 μM): (−98%) | Corticosterone absolute change vs ACTH stimulation with vehicle (5 μM): -373.7 nmol/L | Corticosterone percentage change vs ACTH stimulation with vehicle (5 μM): (−100%) | Cortisol absolute change vs ACTH stimulation with vehicle (5 μM): -640.2 nmol/L | Cortisol percentage change vs ACTH stimulation with vehicle (5 μM): (−100%) | DHEA absolute change vs ACTH stimulation with vehicle (5 μM): <LLQ | DHEAS absolute change vs ACTH stimulation with vehicle (5 μM): <LLQ | Prog absolute change vs ACTH stimulation with vehicle (5 μM): +37.66 nmol/l | Prog percentage change vs ACTH stimulation with vehicle (5 μM): (+1201%) | Testosterone absolute change vs ACTH stimulation with vehicle (5 μM): -0.5513 nmol/L | Testosterone percentage change vs ACTH stimulation with vehicle (5 μM): (−85%) | 11-DOC absolute change vs control (0.05 μM): -96.33 nmol/L | 11-DOC percentage change vs control (0.05 μM): (−37%) | 17-OHP absolute change vs control (0.05 μM): -0.4667 nmol/L | 17-OHP percentage change vs control (0.05 μM): (−4.6%) | Androstenedione absolute change vs control (0.05 μM): -6.508 nmol/L | Androstenedione percentage change vs control (0.05 μM): (−64%) | Corticosterone absolute change vs control (0.05 μM): -67.07 nmol/L | Corticosterone percentage change vs control (0.05 μM): (−33%) | Cortisol absolute change vs control (0.05 μM): -178.4 nmol/L | Cortisol percentage change vs control (0.05 μM): (−64%) | DHEA absolute change vs control (0.05 μM): <LLQ | DHEAS absolute change vs control (0.05 μM): <LLQ | Prog absolute change vs control (0.05 μM): +5.108 nmol/l | Prog percentage change vs control (0.05 μM): (+123%) | Testosterone absolute change vs control (0.05 μM): -0.2583 nmol/L | Testosterone percentage change vs control (0.05 μM): (−48%) | 11-DOC absolute change vs control (5 μM): -280.5 nmol/L | 11-DOC percentage change vs control (5 μM): (−99%) | 17-OHP absolute change vs control (5 μM): -14.33 nmol/L | 17-OHP percentage change vs control (5 μM): (−93%) | Androstenedione absolute change vs control (5 μM): -7.978 nmol/L | Androstenedione percentage change vs control (5 μM): (−95%) | Corticosterone absolute change vs control (5 μM): -193.8 nmol/L | Corticosterone percentage change vs control (5 μM): (−99%) | Cortisol absolute change vs control (5 μM): -230.3 nmol/L | Cortisol percentage change vs control (5 μM): (−99%) | DHEA absolute change vs control (5 μM): <LLQ | DHEAS absolute change vs control (5 μM): <LLQ | Prog absolute change vs control (5 μM): +13.36 nmol/l | Prog percentage change vs control (5 μM): (+363%) | Testosterone absolute change vs control (5 μM): -0.3838 nmol/L | Testosterone percentage change vs control (5 μM): (−90%) | total change of steroids (EAS associated adrenal hyperplasia no. 1, basal condition): -343.9 nmol/L | total sum of change of the steroids: decrease (EAS associated adrenal hyperplasia no. 1, under ACTH stimulation): 138.5 nmol/L | propensity to increase 11-deoxycorticosterone secretion compared to racemic ketoconazole (human adrenal cells in the presence of ACTH drive): less propensity to increase 11-deoxycorticosterone secretion
